# Assay results reported in patent publication US20100317831A1, “PROBE COMPOUNDS FOR PROTEIN TYROSINE PHOSPHATASE (PTP) AND PRECURSORS THEREOF” (NATIONAL TAIWAN UNIVERSITY, priority 2009, published 2010).
# Target: T1, PTP1B (Homo sapiens, UniProt P18031)
# T1 sequence (P18031 1-435): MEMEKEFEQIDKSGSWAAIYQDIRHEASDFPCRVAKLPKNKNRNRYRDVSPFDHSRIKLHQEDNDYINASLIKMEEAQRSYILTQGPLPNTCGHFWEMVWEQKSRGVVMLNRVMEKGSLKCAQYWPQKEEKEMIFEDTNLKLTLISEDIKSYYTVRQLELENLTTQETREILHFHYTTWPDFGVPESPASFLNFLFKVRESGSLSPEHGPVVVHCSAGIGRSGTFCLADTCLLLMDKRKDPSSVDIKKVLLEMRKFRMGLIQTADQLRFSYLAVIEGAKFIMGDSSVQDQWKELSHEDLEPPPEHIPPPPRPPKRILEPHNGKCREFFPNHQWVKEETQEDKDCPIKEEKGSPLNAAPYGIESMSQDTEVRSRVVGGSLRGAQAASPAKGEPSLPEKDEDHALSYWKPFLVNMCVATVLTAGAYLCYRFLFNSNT
# Assay: PTP1B labeling by probe compound (streptavidin immunoblot)
# Type: biochemical
# Excerpt: FIG. 1b was visualized by immunoblotting analysis (streptavidin) after transferring the reaction products onto a nitrocellulose membrane. […] Since the probe compounds themselves are also the substrates of the corresponding PTPs, the results clearly indicate that the newly developed latent trapping unit well mimics the phosphorotyrosine residue of the natural substrate. […] In the absence of PTPs, they underwent hydrolysis slowly and the purity remained greater than 90% even after 1 hr (as determined by HPLC).
# To test if probe compounds 30a-c could differentiate PTPs from other phosphatases, we conducted labeling experiments on nine phosphatases, including five PTPs, alkaline phosphatase (ALP), PTEN (dephosphorylating the phosphatidylinositol 3,4,5-trisphosphate), and two serine/threonine phosphatases (PPP1CA and PPM1A).
# In order to further study how well probe compounds 30a-c could differentiate between the various PTPs, we compared the labeling intensities on five PTPs (PTP1B, SHP2, TCPTP, VHR, and PTPPEST) with those obtained from probe 1 (LCL2). When the intensities of the probe compounds 30a-c-labeled bands in each set of experiments were normalized relative to that of a probe 1-labeled band, we were able to establish a quantitative comparison of their labeling preference (as shown in FIGS. 4a to 4e). […] Of the five PTPs tested, the substrate specificities of PTP1B, TCPTP, and SHP2 were better studied than those of VHR and PTP-PEST. […] The trend of substrate preference obtained from this study was similar to those determined by other methods. We have also compared the labeling intensity data for the other two PTPs, VHR (a dual-specificity phosphatase) and PTP-PEST (a classical PTP). […] This provides evidence to support the concept that probe compounds with added amino acid residues flanking the latent trapping device were able to influence their target specificities.
smiles,measurement,setting,value
CC(C)CC(NC(=O)C(Cc1ccc(OP(=O)(O)O)c(CF)c1)NC(=O)C(CCC(=O)O)NC(=O)CCC(=O)NCCOCCOCCNC(=O)CCCCC1SC[C@H]2NC(=O)N[C@@H]12)C(N)=O (stereo partly drawn) [compound 30b],biotinylated adduct (labeling of PTP1B) with phosphatase inhibitor present,Na3VO4 present in the incubation mixture,no biotinylated adduct was observed
same,activity dependence of labeling of PTPs,"PTP1B and TCPTP, conclusion from Na3VO4 control",activity dependent
same,biotinylated protein bands (labeling of PTP1B),"immunoblotting analysis (streptavidin), FIG. 1b",Intense biotinylated protein bands were observed
